Data as given in US20070037238A1, “Composition for suppressing PQQGDH reaction inhibition” (Toyo Boseki Kabushiki Kaisha, priority 2005, published 2007).

Tested on: PQQGDH
Assay: Measurement with glucose electrodes
Format: biochemical
Settings: 0.1 M potassium ferricyanide, D-glucose 5-40 mM, 25° C., +0.35 V
Method: 0.5 g of carbon graphite and 0.3 mL of fluid paraffin were ground well with a mortar and pestle to form a carbon paste. This carbon paste was spread on a platinum electrode, and 10 μL of PQQGDH solution (Toyo Boseki GLD-331, 2,000 U/mL) was placed thereon and air-dried for 30 minutes at room temperature. This electrode was covered with a semipermeable cellulose membrane (molecular weight cut-off 8.000), and the semipermeable membrane was fixed with an O-ring to prepare a glucose electrode. This glucose electrode was used after having been soaked for 30 minutes or more in the buffer used for measurement. […] After about 5 minutes when the response current was confirmed to have stabilized, a D-glucose solution was added and the rise in the response current was monitored. […] The theoretical values here are the response value at each concentration calculated based on measurement values at 5 mM, assuming that the D-glucose amount and measurement value are proportional, and these are given as straight lines in the figures. The response values were more linear when pimelic acid and succinic acid were added in comparison to the solution of phosphoric acid and glutaric acid alone, and the actual measured response values at glucose concentrations of 30 mM or more are particularly close to the corresponding theoretical values.

O=C(O)CCC(=O)O [succinic acid]
linearity of glucose electrode response values versus D-glucose concentration (1% succinic acid in 50 mM glutaric acid pH 7.0 (Buffer D vs Buffer C)): more linear

O=C(O)CCCCCC(=O)O [pimelic acid]
linearity of glucose electrode response values versus D-glucose concentration (1% pimelic acid in 50 mM potassium phosphate buffer pH 7.0 (Buffer B vs Buffer A)): more linear
